The subject of data set [1] is urinary bladder. As to the kind of experiment: Inhibitory effect on urinary bladder contractions (carbachol-induced, isolated rat urinary bladder). The following applies: Tyrode solution 37° C., contraction by 1×10^-5 M carbachol, compound added 5 minutes before carbachol, read-out: IC50, concentration of the test compound required to induce 50% inhibition of the pressure. The protocol: (Inhibitory effect on urinary bladder contractions)
Rats (body weight: 250 to 450 g) were used as the test animals. […] Urinary bladder was filled with 0.8 ml of a physiological saline solution. An ureteral catheter was inserted into the urinary bladder and one end of the catheter was connected to a pressure transducer. The change in intravesical pressure of the bladder was recorded. Contraction was induced by adding 1×10^-5 M carbachol at 30 minutes intervals. After the contraction became stable, the test compound was added to the Tyrode solution 5 minutes before the addition of carbachol.

Data set [2] is described as follows: Acute oral toxicity in mice. The format is in vivo. As to conditions: 500 mg/kg. The method, then:
For example, when (±)-cis-5-(2-thienyl)-7-isopropylamino-6,7,8,9-tetrahydro-5H-benzocyclohepten-5-ol was orally administered to mice at a dose of 500 mg/kg, no mouse died two days after the administration thereof.

Where “and” joins values, the source holds several entries; their conditions need not be identical. Equal values may be shown once.

With `O[C@@]1(c2cccs2)C[C@@H](N2CCCCC2)CCc2ccccc21` (racemic) [(±)-cis-5-(2-thienyl)-7-(1-piperidinyl)-6,7,8,9-tetrahydro-5H-benzocyclohepten-5-ol], the IC50 in data set [1] is 700 nM.

As to `CCN(CC)[C@H]1CCc2ccccc2[C@](O)(c2cccs2)C1` (racemic) [(±)-cis-5-(2-thienyl)-7-diethylamino-6,7,8,9-tetrahydro-5H-benzocyclohepten-5-ol], in data set [1], the IC50 worked out at 1100 nM.

Turning to “(±)-cis-5-(2-thienyl)-7-isopropylamino-6,7,8,9-tetrahydro-5H-benzocyclohepten-5-ol”, the “mortality two days after oral administration” value in data set [2] is on record as “no mouse died”. Moreover, the IC50 in data set [1] was 2600 nM and 2200 nM.

The values are drawn from patent US5252589A, “Benzocycloheptene derivative and process for preparation thereof” (Tanabe Seikayu Co., Ltd., priority 1992, dated 1993).
